In US7645781B2, “N-aryl-2-oxazolidinone-5-carboxamides and their derivatives” (Pfizer Inc, priority 2002, dated 2010) one finds MIC and melting point data, which are given here for 27 compounds.

One may read the MIC as the lowest concentration that inhibits growth of the organism. For orientation: melting point means the temperature of the solid-liquid transition.

In brackets after ≈: the same amount, converted by molar mass. A value given as a limit tells only on which side of the number the result lay.

The test system of data set [1] is Staphylococcus aureus (SAUR 9213). As to the kind of experiment: MIC by standard agar dilution method. The class given is cell-based. To be noted: Mueller Hinton agar, incubated overnight at 35° C., read-out: MIC. The source says: The antibacterial agents of this invention have useful activity against a variety of organisms. The in vitro activity of compounds of this invention can be assessed by standard testing procedures such as the determination of minimum inhibitory concentration (MIC) by agar dilution as described in “Approved Standard. Methods for Dilution Antimicrobial Susceptibility Tests for Bacteria That Grow Aerobically”, 3rd. ed., published 1993 by the National Committee for Clinical Laboratory Standards, Villanova, Pa., USA. The in vitro MICs of test compounds are determined by a standard agar dilution method. A stock drug solution of each analog is prepared in the preferred solvent, usually DMSO:H2O (1:3). Serial 2-fold dilutions of each sample are made using 1.0 ml aliquots of sterile distilled water. To each 1.0 ml aliquot of drug is added 9 ml of molten Mueller Hinton agar medium. The drug-supplemented agar is mixed, poured into 15×100 mm petri dishes, and allowed to solidify and dry prior to inoculation. Vials of each of the test organisms are maintained frozen in the vapor phase of a liquid nitrogen freezer. Test cultures are grown overnight at 35° C. on the medium appropriate for the organism. Colonies are harvested with a sterile swab, and cell suspensions are prepared in Trypticase Soy broth (TSB) to equal the turbidity of a 0.5 McFarland standard. A 1:20 dilution of each suspension is made in TSB. The plates containing the drug supplemented agar are inoculated with a 0.001 ml drop of the cell suspension using a Steers replicator, yielding approximately 10^4 to 10^5 cells per spot. The plates are incubated overnight at 35° C. Following incubation the Minimum Inhibitory Concentration (MIC μg/ml), the lowest concentration of drug that inhibits visible growth of the organism, is read and recorded.

Take `NC(=O)[C@H]1CN(c2cc(F)c(N3CCS(=O)(=O)CC3)c(F)c2)C(=O)O1` [Example 15, (5R)-(−)-3-[4-(Thiomorpholin-4-yl)-3,5-difluorophenyl]-2-oxo-5-oxazolidinecarboxamide S,S-dioxide]: the melting point was 245 to 248 °C (dec.). Moreover, in data set [1], the minimal inhibitory concentration (MIC) stood at 2 µg/mL (≈ 5.33 µM).
In turn, `NC(=O)[C@H]1CN(c2ccc(C3=CCS(=O)(=O)CC3)c(F)c2)C(=O)O1` [Example 12, (5R)-(−)-3-[4-(3,6-Dihydro-2H-thiopyran-4-yl)-3-fluorophenyl]-2-oxo-5-oxazolidinecarboxamide S,S-dioxide] had a melting point of 206 to 208 °C. Besides, the MIC in data set [1] was determined as 2 µg/mL (≈ 5.64 µM).
The corresponding values for `CNC(=O)[C@H]1CN(c2ccc(N3CCOCC3)c(F)c2)C(=O)O1` [Example 2, (5R)-(−)-3-[3-Fluoro-4-(4-morpholinyl)phenyl]-N-methyl-2-oxo-5-oxazolidinecarboxamide] are 182 to 183 °C (dec.) and 8 µg/mL (≈ 24.7 µM).
For `NC(=O)[C@H]1CN(c2ccc(C3CCS(=O)(=O)CC3)cc2)C(=O)O1` [Example 25, (5R)-(−)-3-[4-(tetrahydro-2H-thiopyran-4-yl)phenyl]-2-oxo-5-oxazolidinecarboxamide S,S-dioxide] the same measures were 211 to 212 °C and 8 µg/mL (≈ 23.6 µM).
For `CCn1c(=O)sc2cc(N3C[C@H](C(N)=O)OC3=O)ccc21` [Example 30, (5R)-(−)-3-(2,3-Dihydro-3-ethyl-2-oxo-6-benzothiazolyl)-2-oxo-5-oxazolidinecarboxamide] the same measures were 211 to 212.5 °C and 1 µg/mL (≈ 3.25 µM).
For the compound `NC(=O)[C@H]1CN(c2ccc([C@H]3CC[S@@+]([O-])CC3)c(F)c2)C(=O)O1` [Example 23, (5R)-3-[3-Fluoro-4-(cis-tetrahydro-1-oxido-2H-thiopyran-4-yl)phenyl]-2-oxo-5-oxazolidinecarboxamide], the melting point is 279 to 281 °C (dec.). Besides, the minimal inhibitory concentration (MIC) in data set [1] stood at 4 µg/mL (≈ 11.8 µM).
The corresponding values for `NC(=O)[C@H]1CN(c2ccc(N3Cc4cccnc4C3)c(F)c2)C(=O)O1` [Example 54, (5R)-3-[4-(5,7-Dihydro-6H-pyrrolo[3,4-b]pyridin-6-yl)-3-fluorophenyl]-2-oxo-5-oxazolidinecarboxamide] are 257 °C (dec.) and 0.5 µg/mL (≈ 1.46 µM).
The compound `C[C@@H]1Cc2cc(N3C[C@H](C(N)=O)OC3=O)ccc2N1C=O` [Example 49, (5R)-3-[(2R)-2,3-Dihydro-1-formyl-2-methyl-1H-indol-5-yl]-2-oxo-5-oxazolidinecarboxamide] registered a melting point of 228 to 230 °C. Further, in data set [1], the minimal inhibitory concentration (MIC) came out at 8 µg/mL (≈ 27.7 µM).
For `CNC(=O)[C@H]1CN(c2cc(F)c(N3CCS(=O)(=O)CC3)c(F)c2)C(=O)O1` [Example 44, (5R)-(−)-N-Methyl-3-[3,5-difluoro-4-(thiomorpholin-4-yl)phenyl]-2-oxo-5-oxazolidinecarboxamide S,S-dioxide] the same measures were 243 to 246 °C and 4 µg/mL (≈ 10.3 µM).
The corresponding values for `NC(=O)[C@H]1CN(c2ccc(-c3cccnc3)c(F)c2)C(=O)O1` [Example 7, (5R)-(−)-3-[4-(3-Pyridyl)-3-fluorophenyl]-2-oxo-5-oxazolidinecarboxamide] are 240 to 242 °C (dec.) and 2 µg/mL (≈ 6.64 µM).
With `NC(=O)[C@H]1CN(c2cc(F)c([C@H]3CC[S@@+]([O-])CC3)c(F)c2)C(=O)O1` [Example 46, (5R)-(−)-3-[3,5-Difluoro-4-(cis-tetrahydro-1-oxido-2H-thiopyran-4-yl)phenyl]-2-oxo-5-oxazolidinecarboxamide], the melting point is 283 to 285 °C (dec.). The minimal inhibitory concentration (MIC) in data set [1] is 8 µg/mL (≈ 22.3 µM).
The corresponding values for `Cn1c(=O)oc2cc(N3C[C@H](C(N)=O)OC3=O)ccc21` [Example 38, (5R)-(−)-3-(2,3-dihydro-3-methyl-2-oxo-6-benzoxazolyl)-2-oxo-5-oxazolidinecarboxamide] are greater than 260 °C and 1 µg/mL (≈ 3.61 µM).
As to `NC(=O)[C@H]1CN(c2ccc(C3=CCOCC3)c(F)c2)C(=O)O1` [Example 9, (5R)-(−)-3-[4-(3,6-Dihydro-2H-pyran-4-yl)-3-fluorophenyl]-2-oxo-5-oxazolidinecarboxamide], the melting point is 164 to 169 °C. For the same compound, in data set [1], the MIC came out at 4 µg/mL (≈ 13.1 µM).
Regarding `NC(=O)[C@H]1CN(c2ccc(N3CCS(=O)(=O)CC3)c(F)c2)C(=O)O1` [Example 20, (5R)-(−)-3-[3-Fluoro-4-(thiomorpholin-4-yl)phenyl]-2-oxo-5-oxazolidinecarboxamide S,S-dioxide], the melting point was 245 to 247 °C (dec.). Also, the MIC in data set [1] was 4 µg/mL (≈ 11.2 µM).
The corresponding values for `CNC(=O)[C@H]1CN(c2ccc3c(c2)oc(=O)n3C(C)C)C(=O)O1` [Example 53, (5R)-(−)-N-Methyl-3-(2,3-dihydro-3-isopropyl-2-oxo-6-benzoxazolyl)-2-oxo-5-oxazolidinecarboxamide] are 216 to 218 °C and 2 µg/mL (≈ 6.26 µM).
The compound `NC(=O)[C@H]1CN(c2cc(F)c(N3CCOCC3)c(F)c2)C(=O)O1` [Example 17, (5R)-(−)-3-[3,5-Difluoro-4-(4-morpholinyl)phenyl]-2-oxo-5-oxazolidinecarboxamide] displayed a melting point of 181 to 183 °C. In addition, in data set [1], the MIC was found to be 4 µg/mL (≈ 12.2 µM).
In turn, `CCn1c(=O)sc2cc(N3C[C@H](C(=O)NC)OC3=O)ccc21` [Example 36, (5R)-(−)-N-Methyl-3-(2,3-dihydro-3-ethyl-2-oxo-6-benzothiazolyl)-2-oxo-5-oxazolidinecarboxamide] registered a melting point of 227 to 229 °C. The minimum inhibitory concentration (MIC) in data set [1] worked out at 2 µg/mL (≈ 6.22 µM).
For `CNC(=O)[C@H]1CN(c2ccc3c(c2)sc(=O)n3C(C)C)C(=O)O1` [Example 37, (5R)-(−)-N-Methyl-3-(2,3-dihydro-3-isopropyl-2-oxo-6-benzothiazolyl)-2-oxo-5-oxazolidinecarboxamide] the same measures were 172 to 173.5 °C and 2 µg/mL (≈ 5.96 µM).
For `CNC(=O)[C@H]1CN(c2ccc(N3Cc4cccnc4C3)c(F)c2)C(=O)O1` [Example 55, (5R)-N-Methyl-3-[4-(5,7-dihydro-6H-pyrrolo[3,4-b]pyridin-6-yl)-3-fluorophenyl]-2-oxo-5-oxazolidinecarboxamide] the same measures were 275 °C (dec.) and 1 µg/mL (≈ 2.81 µM).
The corresponding values for `NC(=O)[C@H]1CN(c2ccc(N3CCS(=O)(=O)CC3)cc2)C(=O)O1` [Example 18, (5R)-(−)-3-[4-(Thiomorpholin-4-yl)phenyl]-2-oxo-5-oxazolidinecarboxamide S,S-dioxide] are 226 to 228 °C and 16 µg/mL (≈ 47.1 µM).
`CCn1c(=O)oc2cc(N3C[C@H](C(N)=O)OC3=O)ccc21` [Example 39, (5R)-(−)-3-(2,3-Dihydro-3-ethyl-2-oxo-6-benzoxazolyl)-2-oxo-5-oxazolidinecarboxamide] displayed a melting point of 234 to 236 °C. Moreover, the minimal inhibitory concentration (MIC) in data set [1] was determined as 1 µg/mL (≈ 3.43 µM).
The corresponding values for `NC(=O)[C@H]1CN(c2ccc(C3=CC[S+]([O-])CC3)c(F)c2)C(=O)O1` (stereo partly drawn) [Example 11, (5R)-3-[4-(3,6-Dihydro-2H-thiopyran-4-yl)-3-fluorophenyl]-2-oxo-5-oxazolidinecarboxamide S-oxide] are 182 to 184 °C (dec.) and 4 µg/mL (≈ 11.8 µM).
For `NC(=O)[C@H]1CN(c2ccc([C@H]3CC[S@@+]([O-])CC3)cc2)C(=O)O1` [Example 26, (5R)-3-[4-(cis-tetrahydro-1-oxido-2H-thiopyran-4-yl)phenyl]-2-oxo-5-oxazolidinecarboxamide], the melting point is 269 to 273 °C (dec.). Moreover, the MIC in data set [1] came to 16 µg/mL (≈ 49.6 µM).
As for `NC(=O)[C@H]1CN(c2ccc(C3CCS(=O)(=O)CC3)c(F)c2)C(=O)O1` [Example 28, (5R)-3-[4-(Tetrahydro-2H-thiopyran-4-yl)-3-fluorophenyl]-2-oxo-5-oxazolidinecarboxamide S,S-dioxide], the melting point is 231 to 234 °C (dec.).
On to `CNC(=O)[C@H]1CN(c2ccc3c(c2)OC(F)(F)C(=O)N3C)C(=O)O1` [Example 81, (5R)-N-Methyl-3-(2,2-difluoro-4-methyl-3,4-dihydro-3-oxo-2H-1,4-benzoxazin-7-yl)-2-oxo-5-oxazolidinecarboxamide], for which the minimal inhibitory concentration (MIC) in data set [1] is 4 µg/mL (≈ 11.7 µM).
The same measure, in the same setting: with `NC(=O)[C@H]1CN(c2ccc(N3C=CC(=NO)CC3)c(F)c2)C(=O)O1` (racemic) [Example 79, (5R)-3-[4-[3,4-Dihydro-4-(hydroxyimino)-1(2H)-pyridinyl]-3-fluorophenyl]-2-oxo-5-oxazolidinecarboxamide] the figure was 1 µg/mL (≈ 2.99 µM).
On the same count and under the same terms, in the case of `CCNC(=O)[C@H]1CN(c2cc(F)c(N3C=CC(=O)CC3)c(F)c2)C(=O)O1` [Example 78, (5R)-N-Ethyl-3-[4-(4-oxo-3,4-dihydro-1(2H)-pyridinyl)-3,5-difluorophenyl]-2-oxo-5-oxazolidinecarboxamide] it was 8 µg/mL (≈ 21.9 µM).
